In US12084523B2, “Ubiquitin high affinity cyclic peptides and methods of use thereof” (TECHNION RESEARCH & DEVELOPMENT FOUNDATION LIMITED, priority 2018, dated 2024):
Where two headings read alike, the source gives them in different places. No end group written: not given here.

Tests used:
K48-Ub2 [1] = biological target: T1, K48-Ub2 (Homo sapiens, UniProt P0CG47); assay: SPR binding of cyclic peptides to K48-linked di-ubiquitin
T1 construct: solid phase peptide synthesis of Ub monomers (modified as required); made in house; host or cells: total chemical synthesis (SPPS, isopeptide ligation, desulfurization)
Description: The interactions between cyclic peptides: U2i, U2ii, U4i, U4ix and Ub1, ^K48Ub2 and ^K48Ub4, were determined using BIACORE T100 instrument (GE healthcare) equipped with a biotin CAPture kit Series S chip. The buffer in all experiments contained 50 mM HEPES, pH 7.3, 150 mM NaCl, 0.05% Tween20, 2 mM DTT with 0.2% DMSO. Biotinylated Ub1, ^K48Ub2 and ^K48Ub4 were loaded to approximately equal molar amounts on the SPR chip, and various concentrations of cyclic peptides were flowed over at 100 μL/sec for 120 sec, before initiation of dissociation by flowing buffer over at 100 μL/sec for further 700 sec. Traces were fit to the simplest, two-state model for binding. Association was fit to a single exponential assuming pseudo-first order conditions, whereas the dissociation trace was fit to single exponential plus a drift term.
Each peptide was flowed over Ub1, ^K48Ub2 and ^K48Ub2 immobilized on SPR chips.

^K48Ub4 = biological target: T2, ^K48Ub4 (Homo sapiens, UniProt P0CG47); assay: SPR binding of cyclic peptides to K48-linked tetra-ubiquitin
T2 construct: solid phase peptide synthesis of Ub monomers (modified as required); made in house
Description: Surface Plasmon Resonance (SPR)
The interactions between cyclic peptides: U2i, U2ii, U4i, U4ix and Ub1, ^K48Ub2 and ^K48Ub4, were determined using BIACORE T100 instrument (GE healthcare) equipped with a biotin CAPture kit Series S chip. The buffer in all experiments contained 50 mM HEPES, pH 7.3, 150 mM NaCl, 0.05% Tween20, 2 mM DTT with 0.2% DMSO. Biotinylated Ub1, ^K48Ub2 and ^K48Ub4 were loaded to approximately equal molar amounts on the SPR chip, and various concentrations of cyclic peptides were flowed over at […] for 120 sec, before initiation of dissociation by flowing buffer over at […] for further 700 sec. Traces were fit to the simplest, two-state model for binding. Association was fit to a single exponential assuming pseudo-first order conditions, whereas the dissociation trace was fit to single exponential plus a drift term. Finally, due to the poor quality of the traces for U4ix binding ^K48Ub2, the amplitude of the association kinetic trace at different concentrations of peptide was fit to estimate the lower bound for KD.
Each peptide was flowed over Ub1, ^K48Ub2 and […] immobilized on SPR chips. There was no detectable binding to Ub1 for any of the peptides, as expected, as Ub1 binding was explicitly selected against during the RaPID protocol. […] However, Ub2i and Ub2ii also strongly bound ^K48Ub4, with a low apparent KD and an increased SPR response (FIG. 1E). This was consistent with a higher stoichiometry of binding to the tetramer, which could be explained by additional binding sites in ^K48Ub4. Indeed, the ^K48Ub2 structure can be superimposed twice on the ^K48Ub4 crystal structure (FIG. 10). […] However, similar to Ub2i and Ub2ii, Ub4i also bound ^K48Ub2. This was perhaps unsurprising, given the high sequence identity between Ub4i and Ub2i.

USP2 [2] = assay: In vitro deubiquitination assay, USP2 with K48-linked di-Ub; assay type: biochemical; conditions: di-Ub as the substrate
Description: (§1) In Vitro Deubiquitination Assay
(§2) In vitro deubiquitination reactions were performed in a Tris buffer (50 mM TRIS, 1 mM TCEP, pH 7.7), containing 2 μM ^K48Ub2/4, then the specific DUB (50 mM Tris, 0.5 mM EDTA, 1 mM TCEP and 0.5 mg/ml ovalbumin, pH 7.5) was added. The reaction mixtures were incubated at 37° C. and at the indicated time points the reactions were stopped by taking aliquots and mixed them with 3× sample buffer and boiling. The same amounts were loaded on 14% SDS-PAGE, electro-blotted to nitrocellulose membrane and probed with an anti-Ub antibody. Bands were quantified with Image Quant LAS 4000 (GE Healthcare).
(§3) The inventors further chose to examine the effect of these cyclic peptides on two DUBs: OTUB1, a K48-linkage chain specific DUB, and USP2, which cleaves most Ub chains without specificity, using K48-linked di- and tetra-Ub chains as substrates.

^K63Ub2 = biological target: T3, ^K63Ub2 (Homo sapiens, UniProt P0CG47, K63R); assay: NMR titration with K63-linked di-Ub; assay type: binding; conditions: up to 2:1 peptide:Ub2
T3 construct: Recombinant Ub monomers carrying chain-terminating mutations; made in house
Description: (§4) All NMR studies were performed on Bruker Avance III 600 MHz spectrometer equipped with TCI cryoprobe. The sample temperature was set to 23° C. for Ub2ii binding studies or 25° C. for Ub4ix studies, unless indicated otherwise. The protein (monomeric Ub or Ub chains) samples were prepared in 20 mM sodium phosphate buffer (pH 6.8) containing 5-10% D20 and 0.02% (w/v) NaN3. The Ub2ii peptide was dissolved in deuterated DMSO (up to 20 mM concentration) and titrated in μL amounts into 50 μM ^15N-Ub^WT or K63-linked Ub2 (^15N-enriched in the distal domain) to two molar equivalents. Ub2ii was titrated into 100 μM solutions of proximally- or distally-^15N-enriched ^K48Ub2 to 1:1 or 1:1.3 molar ratio, respectively, as well as into 200 μM ^K48Ub2 with the ^13C/^15N-enriched proximal or distal Ub unit. Ub4ix titration into K48-linked Ub2, Ub3, and Ub4 was performed in a similar manner, with the starting Ub chain concentration of 200 μM; the chain/peptide molar ratio at the endpoint varied from 1:1 (Ub2) to 1:1.5 or 1:2 for Ub3 and Ub4. Several of these titrations were performed twice and at differing protein concentrations, to verify the reproducibility of the observed spectral changes. Separately, a similar amount of DMSO was added to ^15N-labeled Ub to verify that the presence of DMSO in the peptide-containing stock solution had negligible effect on Ub spectra. […]

monomeric Ub = biological target: T4, monomeric Ub (Homo sapiens, UniProt P0CG47); assay: NMR titration with monomeric Ub; assay type: binding; conditions: compared with ^K48Ub2
T4 construct: made in house
Description: as §4

USP2 [3] = assay: In vitro deubiquitination assay, USP2 with K48-linked tetra-Ub; assay type: biochemical; conditions: tetra-Ub chain, after removal of the distal Ub (tri-Ub)
Description: as §1, §2, §3

26S proteasome = assay: In vitro proteasome degradation assay of HA-α-globin-K48-linked tetra-Ub; assay type: biochemical; conditions: 5.3 μM peptide
[4] = test system: K48-linked Ub elongation on Ring1B; assay: In vitro K48-linked Ub elongation on Ring1B (western blot); assay type: biochemical
K48-Ub2 [5] = biological target: T1, K48-Ub2; assay: Deep mutational scanning of J08_mClBz (relative enrichment, MiSeq); assay type: binding; conditions: single mutation of J08_mClBz
Text: FIG. 36 is a bar graph showing relative enrichment (log2 E) versus single mutations based on deep scanning (Step 2b in FIG. 34B). E=Positive fraction %/Input fraction % according MiSeq sequencing results. Bars of positive values and negative values indicate potentially favorable and unfavorable mutations, respectively.
Mutation of Leu6 seemed highly flexible which allowed its replacement by either nonpolar or polar residues. […] Based on this information, the inventors prepared nine peptides containing F9Y mutations.

[6] = SPR, target ^K48Ub2, read-out: KD
[7] = range stated in the description, 'as exemplified', read-out: dimeric Ub binding affinity KD
[8] = SPR, target ^K48Ub4, read-out: KD
[9] = range stated in the description, 'as exemplified', read-out: tetrameric Ub binding affinity KD

| Compound | koff (K48-Ub2 [1]; SPR, target ^K48Ub2) [s⁻¹] | kon (K48-Ub2 [1]; SPR, target ^K48Ub2) [M⁻¹ s⁻¹] | Kd (K48-Ub2 [1]; [6]) [nM] | Kd (K48-Ub2 [1]; [7]) [nM] | koff (^K48Ub4; SPR, target ^K48Ub4) [s⁻¹] | kon (^K48Ub4; SPR, target ^K48Ub4) [M⁻¹ s⁻¹] | Kd (^K48Ub4; [8]) [nM] | Kd (^K48Ub4; [9]) [nM] | inhibition of USP2 (USP2 [2]) [%] | inhibition of proteasomal degradation of α-globin-K48-linked tetra-Ub (26S proteasome) | other results |
| --- | --- | --- | --- | --- | --- | --- | --- | --- | --- | --- | --- |
| CC(C)C[C@@H]1NC(=O)[C@H](CC(N)=O)NC(=O)[C@H](CC(=O)O)NC(=O)[C@H](Cc2ccccc2)NC(=O)[C@H](Cc2c[nH]c3ccccc23)NC(=O)CNC(=O)[C@@H](Cc2c[nH]c3ccccc23)NC(=O)CSC[C@@H](C(=O)NCC(N)=O)NC(=O)[C@H](Cc2c[nH]cn2)NC(=O)[C@H]([C@@H](C)O)NC(=O)[C@H](C(C)C)NC(=O)[C@H](Cc2ccc(O)cc2)NC(=O)[C@H](Cc2c[nH]c3ccccc23)NC(=O)[C@H](Cc2ccc(O)cc2)NC1=O [Ub2i] | 0.024 | 593000 | 40 ± 12 | 20 to 40 | 0.011 | 779000 | 14 | 15 to 25 | ~40 | – | – |
| CC(C)C[C@@H]1NC(=O)[C@H](Cc2ccc(O)cc2)NC(=O)[C@H](Cc2ccc(O)cc2)NC(=O)[C@H](Cc2ccc(O)cc2)NC(=O)[C@H](CCC(=O)O)NC(=O)[C@H](CCCNC(=N)N)NC(=O)[C@H](CC(=O)O)NC(=O)[C@H](Cc2ccc(O)cc2)NC(=O)[C@H](Cc2c[nH]c3ccccc23)NC(=O)[C@@H](Cc2c[nH]c3ccccc23)NC(=O)CSC[C@@H](C(=O)NCC(N)=O)NC(=O)CNC(=O)[C@H](Cc2ccc(O)cc2)NC(=O)CNC1=O [Ub2ii] | 0.016 | 489000 | 33 ± 8 | 30 to 50 | 0.012 | 877000 | 14 | 10 to 20 | ~40 | – | binding to K63-linked di-Ub (NMR) (^K63Ub2): non-specific and much weaker; binding to monomeric Ub (NMR) (monomeric Ub): much weaker binding |
| CC(C)C[C@@H]1NC(=O)[C@H](CC(=O)O)NC(=O)[C@H](CC(=O)O)NC(=O)[C@H](Cc2ccccc2)NC(=O)[C@H](Cc2c[nH]c3ccccc23)NC(=O)CNC(=O)[C@@H](Cc2c[nH]c3ccccc23)NC(=O)CSC[C@@H](C(=O)NCC(N)=O)NC(=O)[C@H](Cc2ccc(O)cc2)NC(=O)[C@H](C)NC(=O)[C@H](C(C)C)NC(=O)[C@H](Cc2ccccc2)NC(=O)[C@H](CC(C)C)NC(=O)[C@H](Cc2ccc(O)cc2)NC1=O [Ub4i] | 0.024 | 262000 | 91 | 85 to 115 | 0.011 | 407000 | 26 | 20 to 35 | ~40 | – | Kd (K48-Ub2 [1]; text and figure legend, K48-Ub2, read-out: KD / binding affinity): 90 nM; inhibition of USP2 (USP2 [3]): strong inhibition |
| *FQLWOHAIALCG [Ub4_e] | – | – | – | – | – | – | – | – | – | clear inhibition | inhibition of K48-linked Ub elongation on Ring1B [4]: inhibit |
| *FQYWOYATGVCG [Ub4_a] | – | – | – | – | – | – | – | – | – | clear inhibition | inhibition of K48-linked Ub elongation on Ring1B [4]: inhibit |
| *GWFDDLYLYVAYC [J08_mClBz_F9Y] | – | – | – | – | – | – | – | – | – | – | fold improvement of binding affinity (K48-Ub2 [1]; from J08_mClBz): 17 fold; relative enrichment ratio (K48-Ub2 [5]): > 5 |
| M*GWFDDLYLFVAY-CG [J08_mClBz] | – | – | – | – | – | – | – | – | – | – | fold improvement of binding affinity (K48-Ub2 [1]; compared with U4i (chloroacetyl-cyclized peptide of same sequence)): 9 fold |
| linear Ub4ix: uncyclized/linear form of Ub4ix (WLYLDDSGDWWICG; not fully specified (residue 1)) | – | – | – | – | – | – | – | – | – | no inhibition | – |
